Laboratory results reported in US6303612A, “Derivatives of hydroxyphenylsulfanylbenzoic and hydroxphenylsulfanylarylacetic acids” (Leciva, A.S., priority 1998, dated 2001).
In brackets after ≈: the same amount, converted by molar mass. Where two headings read alike, the source gives them in different places.

Legend:
[1] = system: bronchospasm induced by ovalbumin; assay: Inhibition of bronchospasm induced by ovalbumin; type: in vivo
Protocol: (§1) Inhibition of Allergic Bronchospasm Induced by […] (Compound 48/80 or Ovalbumin, Respectively)
(§2) The modified method of Kreutner W. et al (Krelutner W. et al.: Agents Actions 28, 253 (1989)) was used. Bronchoconstrictioin was induced by intravenous injection of 1 μg/kg LTD4 (3 mg/kg of compound […] or 0.35 mg/kg of ovalbumin, respectively). In the case of oval-bumin, the animals were senzitized by intraperitoneal injection of ovalbumin (100 mg/kg) 14 days before induction. The compounds tested were applied 5 min before the administration of the inductor; the vehiculum used for the application of compound tested was administered to the control group of animals. The tracheal pressure was determined in the intervals of 2, 4 and 10 minutes after induction. The effect was expressed in percentage inhibition of bronchospasm relative to the untreated control.

[2] = system: peroxidation of lipids from the hepatic cells membranes; assay: Antioxidant effect in vitro; type: biochemical; settings: at 100 μg
Description: Antioxidant Effect in vitro
The end-product, malonic dialdehyde, was transformed to coloured complex with thiobarbituric acid and determined spectrophotometrically. The antioxidant effect was expressed in % of peroxidation inhibition in the presence of the compound tested in comparison to a control sample.

rats = assay: Inhibition of carrageenan-induced pleuritis in rats; type: in vivo; settings: dose 100 mg/kg, oral, values with mark n: p > 0.05; for inhibition in vivo at 100 mg/kg: Rattus norvegicus, po, 4 h
How it was run: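 Rats given test drug as single oral dose 1 h before intrapleural 0.5% carrageenan (1 ml) under light ether anaesthesia. Pleural exudate collected 4 h later; volume, cellularity and total cell count measured.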

[3] = system: LTB4 production in rat polymorphonuclear cells; assay: Ex vivo inhibition of LTB4 production (LTB4 biosynthesis); type: cell-based; settings: for IC50: Rattus norvegicus, read-out: Inh. of LTB4 biosynth., IC50; for Inh. of LTB4 biosynth., %: at 30 μg (%/μg)
LTB4 receptor = LTB4 receptor (Cavia porcellus, UniProt H0VYV8); assay: LTB4 receptor binding study; settings: 3H-LTB4, guinea-pig spleen membranes; for IC50: read-out: Inh. of LTB4 rec. binding, IC50; for inhibition at 20 µM: read-out: Inh. of LTB4 rec. binding, %
How it was run: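 Male guinea-pig spleen membranes (2 mg) incubated with 0.3 nM ^3H-LTB4 for 30 min at 25 °C; nonspecific binding defined with 0.1 μM LTB4. Bound ligand collected by GF/C filtration, counted by liquid scintillation to give specific binding.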

LTD4 receptor = biological target: T1, LTD4 receptor (Cavia porcellus, UniProt Q2NNR5); assay: LTD4 receptor binding study; settings: 3H-LTD4, guinea-pig lung membranes; for IC50: read-out: Inh. of LTD4 rec. binding, IC50; for inhibition at 100 µM: read-out: Inh. of LTD4 rec. binding, %
T1 construct: The membrane fraction was prepared from male guinea-pig lungs; from tissue; host or cells: male guinea-pig lung membranes
T1 sequence (Q2NNR5 1-340): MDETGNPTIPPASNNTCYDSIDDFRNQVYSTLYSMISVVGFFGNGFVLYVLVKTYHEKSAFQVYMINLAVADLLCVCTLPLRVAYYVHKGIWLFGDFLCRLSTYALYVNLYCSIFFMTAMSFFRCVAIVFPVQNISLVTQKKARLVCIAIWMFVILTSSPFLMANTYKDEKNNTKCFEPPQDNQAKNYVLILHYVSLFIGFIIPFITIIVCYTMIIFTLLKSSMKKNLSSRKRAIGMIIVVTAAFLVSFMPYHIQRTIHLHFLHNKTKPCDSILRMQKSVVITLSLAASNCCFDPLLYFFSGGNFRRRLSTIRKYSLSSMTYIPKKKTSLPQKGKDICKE
How it was run: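 Guinea-pig lung membranes (male animals) were incubated with 0.4 nM ³H-LTD4 for 60 min at 25 °C. Nonspecific binding was defined with 0.1 μM LTD4. Bound radioactivity was measured after filtration and washing.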

male mice = assay: Inhibition of arachidonic acid-induced ear inflammation in mice; type: in vivo; settings: for inhibition in vivo at 200 mg/kg: Mus musculus, po, 1 h
How it was run: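 Compounds given orally 1 h before ear inflammation was induced in male mice with 20 µl arachidonic acid in acetone (100 mg/ml). Animals killed 1 h after induction. Ear hyperemia and ear-lobe weight assessed against the vehicle-treated contralateral ear.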

Wistar-Han rats = assay: Inhibition of carrageenan edema; type: in vivo; settings: dose 100 mg/kg; for inhibition in vivo at 100 mg/kg: Rattus norvegicus, read-out: CE: inhibition of carrageenan-induced edema, % of inh.
[4] = system: bronchospasm induced by LTD4; assay: Inhibition of bronchospasm induced by LTD4; type: in vivo
Protocol: as §1, §2

[5] = system: bronchospasm induced by histamine liberator 48/80; assay: Inhibition of bronchospasm induced by histamine liberator 48/80; type: in vivo; settings: dose 100 mg/kg
Protocol: as §1, §2

[6] = read-out: Experimental pleuritis, A: volume of exudate in pleural cavity, % of inh.
[7] = read-out: Experimental pleuritis, B: number of cells, % of inh.
[8] = read-out: Experimental pleuritis, C: cellularity in a volume unit, % of inh.
[9] = values with mark n: p > 0.05, read-out: Ear edema, D: edema of ear lobe, % of inh.
[10] = values with mark n: p > 0.05, read-out: Ear edema, E: hyperemia of ear lobe, % of inh.
[11] = dose 200 mg/kg, oral, values with mark n: p > 0.05, 200 mg/kg

LTB4 receptor, sequence (H0VYV8 1-348): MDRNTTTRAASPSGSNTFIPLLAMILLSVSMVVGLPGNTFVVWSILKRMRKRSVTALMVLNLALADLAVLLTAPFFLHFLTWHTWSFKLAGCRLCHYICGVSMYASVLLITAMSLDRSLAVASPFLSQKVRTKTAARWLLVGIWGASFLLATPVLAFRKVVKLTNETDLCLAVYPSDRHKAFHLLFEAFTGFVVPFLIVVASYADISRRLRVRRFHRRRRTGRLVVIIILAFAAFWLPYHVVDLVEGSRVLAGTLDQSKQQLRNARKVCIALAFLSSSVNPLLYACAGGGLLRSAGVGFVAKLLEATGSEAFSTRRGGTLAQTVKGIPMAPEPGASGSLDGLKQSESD

SMILES	inhibition in vivo at 100 mg/kg ([1]; 2 min) [%]	inhibition in vivo at 100 mg/kg ([1]; 4 min) [%]	inhibition in vivo at 100 mg/kg ([1]; 10 min) [%]	Antiox. effect, % of peroxidation inhibition [2] [%]	inhibition in vivo at 100 mg/kg (rats; [6]) [%]	inhibition in vivo at 100 mg/kg (rats; [7]) [%]	inhibition in vivo at 100 mg/kg (rats; [8]) [%]	IC50 [3] [µg/mL]	Inh. of LTB4 biosynth., % [3] [%]	IC50 (LTB4 receptor) [µM]	inhibition at 20 µM (LTB4 receptor; at 20 μM) [%]	IC50 (LTD4 receptor) [µM]	inhibition at 100 µM (LTD4 receptor) [%]	inhibition in vivo at 200 mg/kg (male mice; [9]) [%]	inhibition in vivo at 200 mg/kg (male mice; [10]) [%]	inhibition in vivo at 100 mg/kg (Wistar-Han rats) [%]	inhibition in vivo at 100 mg/kg ([4]; 2 min) [%]	inhibition in vivo at 100 mg/kg ([4]; 4 min) [%]	inhibition in vivo at 100 mg/kg ([4]; 10 min) [%]	further results
O=C(O)c1ccccc1Sc1cccc(OCc2ccc3ccccc3n2)c1 [Compound 17, 2-(3-(Quinoline-2-ylmethoxy)phenylsulfanyl)benzoic Acid]	23	36	50	4	5	20	15	0.08 (≈ 0.206 µM)	100	44.2	38	0.63	100	16	3	19	11	28	23	
CC(c1cc2ccccc2s1)N(O)C(N)=O (stereo not shown) [Zileuton, reference compound]	23	28	50		36	49	20	0.17 (≈ 0.719 µM)	100		28		7	9	13	46	10	54	75	
O=C(O)c1ccccc1Sc1ccc(OCCCN2CCN(Cc3ccc(Cl)cc3)CC2)cc1 [Compound 13, Dimethanesulfonate of 2-(4-(3-(1-(4-Chlorobenzyl)piperazin-4-yl)-propoxy)phenylsulfanyl)benzoic Acid]	46	35	51					7.6	100		28	41	79				6	38	54	Inhibition of bronchospasm induced by histamine liberator 48/80 ([5]; 2 min): 84%; Inhibition of bronchospasm induced by histamine liberator 48/80 ([5]; 4 min): 82%; Inhibition of bronchospasm induced by histamine liberator 48/80 ([5]; 10 min): 69%
O=C(O)c1ccccc1Sc1ccc(OCc2ccc3ccccc3n2)cc1 [Compound 19, 2-(4-(Quinoline-2-ylmethoxy)phenylsulfanyl)benzoic Acid]	21	27.3		10	17	23	6	0.13 (≈ 0.336 µM)	100	70.3	34	1.7	100	20	5	13	14	33	43	
O=C(O)c1ccccc1Sc1cccc(OCc2ccc3cc(Cl)ccc3n2)c1 [Compound 20, 2-(3-(6-Chloroquinoline-2-ylmethoxy)phenylsulfanyl)benzoic Acid]	66	72	85	1	15	19			99	31.3	31	0.27	100				6	38	54	Experimental pleuritis, C: cellularity in a volume unit, % of inh. (rats; 100 mg/kg): 4%; Inh. of LTB4 biosynth., IC50 [3]: 0.035 µg/mL; Ear edema, D: edema of ear lobe, % of inh. (male mice; [11]): 12%; Ear edema, E: hyperemia of ear lobe, % of inh. (male mice; [11]): 0%; CE: inhibition of carrageenan-induced edema, % of inh. (Wistar-Han rats): 25%
O=C(O)c1ccc(Sc2ccc(OCc3ccc4cc(Cl)ccc4n3)cc2)cc1 [Compound 22, 4-(4-(6-Chloroquinoline-2-ylmethoxy)phenylsulfanyl)benzoic Acid]	3	15	30	13	10	25	15	0.07 (≈ 0.166 µM)	97	50	22	3.8	84	1	9	14	14	33	43	
O=C(O)c1ccc(Sc2ccc(OCc3ccc4ccccc4n3)cc2)cc1 [Compound 16]	41	45	63	13	26	33	11		98	91.6		0.024	100	27	3	25	69	70.8		Inh. of LTB4 biosynth., IC50 [3]: 0.004 µg/mL; Inh. of LTB4 rec. binding, % (LTB4 receptor; at 20 μM): 19%
O=C(O)c1ccccc1Sc1cccc(OCCCN2CCN(Cc3ccc(Cl)cc3)CC2)c1 [Compound 12, Bis-hydrogenmaleate of 2-(3-(3-(1-(4-Chlorobenzyl)piperazin-4-yl)propoxy)-phenylsulfanyl)benzoic Acid]	71	73	90	17				< 0.01	100	7.1	85	16	69	18	7	27	9	41	60	Inhibition of bronchospasm induced by histamine liberator 48/80 ([5]; 2 min): 77%; Inhibition of bronchospasm induced by histamine liberator 48/80 ([5]; 4 min): 78%; Inhibition of bronchospasm induced by histamine liberator 48/80 ([5]; 10 min): 85%
